For data set [1] the following is noted: species not given; cited from earlier work.
The subject of data set [2] is RAT. Particulars: cited from earlier work.
Data set [3] deals with common bacteria associated with failed root canal therapy. In words: Drug efficacy: zones of inhibition on agar plates. Type of data set: cell-based. The protocol: FIG. 6 is graph showing the antimicrobial efficacy of various dose strengths of CHX on bacterial growth on agar plates. The efficacy of the eluted amounts of CHX was tested to evaluate anti-microbial activity at various dose strengths compared to a positive control (Ampicillin). This pilot study was done to obtain a range of CHX elution amounts by weight required to kill common bacteria associated with failed root canal therapy.

SMILES strings stand for the structures. Like-named read-outs stand apart in the source and are kept apart here.

For `C=C(C)C(=O)OCCO` [M5, hydroxyl ethyl methacrylate], the LD50 in data set [1] is given as 4680 mg/kg.

On to `CCOC(=O)c1ccc(N(C)C)cc1` [I3, Ethyl-4-N,N-dimethylaminobenzoate], for which the LD50 in data set [2] (RAT) is 2000 mg/kg.

For `C=C(C)C(=O)OCCN(C)C` [I4, N,N-Dimethylaminoethyl Methacrylate], the LD50 in data set [2] (RAT ORAL) is 1751 mg/kg.

In the case of `C=C(C)C(=O)OCC(O)COc1ccc(C(C)(C)c2ccc(OCC(O)COC(=O)C(=C)C)cc2)cc1` (centres unmarked) [M3, 2,2-bis[p-(2-hydroxy-3-methacryloxypropoxy)phenyl]propane], the LD50 in data set [2] (RAT) was above 5000 mg/kg.

In the case of `CC1(C)S[C@@H]2[C@H](NC(=O)[C@H](N)c3ccccc3)C(=O)N2[C@H]1C(=O)O` [Ampicillin], in data set [3] (10 mg, positive control), the zone of inhibition at 10000 µg/disc was 14.5 mm.

In the case of `[H]/N=C(\N/C(=N/[H])NCCCCCCNC(=N)NC(=N)Nc1ccc(Cl)cc1)Nc1ccc(Cl)cc1` [CHX, chlorohexidine], in data set [3] (4 μg, compared with water (negative control)), the antimicrobial effect entry was “some antimicrobial effect can be seen”. Besides, in data set [3] (31 to 250 μg), the “zones of inhibition compared with Ampicillin” value is on record as “equal to or better than that of Ampicillin”. In data set [3] (dose 0.5 μg), the zone of inhibition at 0.5 µg/disc is 0 mm. Moreover, the zone of inhibition at 1 µg/disc in data set [3] (dose 1 μg) stood at 0 mm. This molecule also came in with a zone of inhibition at 2 µg/disc in data set [3] (dose 2 μg) of 0 mm. The same molecule returned a zone of inhibition at 4 µg/disc in data set [3] (dose 4 μg) of 7 mm. In data set [3] (dose 7.8 μg), this molecule showed a zone of inhibition at 7.8 µg/disc of 9 mm. The molecule also showed a zone of inhibition at 15.6 µg/disc in data set [3] (dose 15.6 μg) of 12.3 mm. Besides, the zone of inhibition at 31.25 µg/disc in data set [3] (dose 31.25 μg) was 14.3 mm. In data set [3] (dose 62.5 μg), this molecule yielded a zone of inhibition at 62.5 µg/disc of 16.7 mm. The zone of inhibition at 125 µg/disc in data set [3] (dose 125 μg) was 16.3 mm. Besides, in data set [3] (dose 250 μg), the zone of inhibition at 250 µg/disc stood at 17.3 mm. Besides, the LD50 in data set [1] was 2000 mg/kg.

As for `[Cl-].c1ccc([I+]c2ccccc2)cc1` [I5, Diphenyliodonium chloride], the LD50 in data set [1] is 60 mg/kg.

In the case of `C=C(C)C(=O)OCCOCCOCCOC(=O)C(=C)C` [M4, triethylene glycol dimethacrylate], the LD50 in data set [1] is given as 10750 mg/kg.

As a reminder, the LD50 is the dose at which mortality reaches 50%. A word on the zone of inhibition: it is the size of the clear area around the sample on an inoculated plate. Read a low zone of inhibition as a weaker effect on the plate.

The values are drawn from patent US20090176891A1, “DENTAL COMPOSITION AND METHOD OF USE” (priority 2007, published 2009).
